Experimental data from paper PMC13198257, “An aerosolized dual-action autotaxin inhibitor-PPARγ agonist for the treatment of pulmonary fibrosis” (Cell Reports Medicine, 2026).

Test system: lung gene expression
Assay: RNA sequencing of lung tissue (BLM/EL244 vs BLM)
Assay type: in vivo, mouse
Description: RNA quality was assessed using an Agilent TapeStation 4150 with the High Sensitivity […] ScreenTape (Agilent), according to the manufacturer’s protocols. For library preparation, the QuantSeq 3’mRNA-Seq Library Prep Kit (Lexogen) was used according to manufacturer’s instructions. Briefly, 500 ng of RNA from each sample was used for first-strand synthesis, followed by RNA template removal, and second-strand synthesis initiated by random primers. In-line barcodes were introduced at this step, and this was followed by magnetic bead-based purification. The resulting libraries were amplified for 15 cycles and re-purified, with quantity and quality assessed on a Qubit 4 Fluorometer with the Invitrogen Qubit dsDNA HS Assay and an Agilent Tapestation 4150 with the High Sensitivity D1000 assay kit, respectively. The quantified libraries were pooled equimolarly; 50ng of total library mix was used for Adapter Conversion PCR Amplification using the Universal Library Conversion Kit (App-A), Version: V1.0 (MGI Tech Co., Ltd.), according to the manufacturer’s instructions.
The quantity and quality of the purified adapter conversion PCR (AC-PCR) product were evaluated on a Qubit 4 Fluorometer with the Invitrogen Qubit dsDNA HS Assay and on an Agilent Tapestation 4150 with the High Sensitivity D1000 assay kit, respectively. This was followed by DNA denaturation, Single-Strand Circularisation, Enzymatic Digestion, Enzymatic Digestion Product Cleanup and Quality Control steps on 1 pmol of AC-PCR product, according to the Universal Library Conversion Kit (App-A) User Manual (Version: A3).
Finally, 60 fmol of ssCirDNA were used for DNB preparation and sequencing on a DNBSEQ-G400 platform at the BSRC Alexander Fleming Genomics Facility, using a G400 App-A FCS SE100 High-throughput Sequencing Set (MGI Tech Co., Ltd.), according to the manufacturer’s instructions.
Alignment of the FASTQ files was performed against the mouse genome build mm10 using a custom Bash script.[143] Read counting on the 3′ UTRs and differential expression analysis were conducted using the metaseqR2 bioconductor package.[144] Genes corresponding to the following biotypes were excluded: polymorphic_pseudogene, processed_transcript, pseudogene, IG_V_pseudogene, misc_RNA, IG_C_gene, IG_J_gene, IG_D_gene, IG_LV_gene, TR_V_gene, TR_V_pseudogene, TEC, and processed_pseudogene. Gene counts were normalized with DESEQ[145] through metaseqR2. Genes with more than 10 counts in at least 50% of the samples were kept for further processing. For differential expression analysis, the PANDORA algorithm[146] was used to estimate a meta p-value integrating the results from the DESEQ, DESEQ2,[147] edgeR,[148] limma,[149] NBPSeq,[150] and NOISeq[151] algorithms. All additional parameters were set to default values.
Pathway enrichment analysis was performed for the Gene Ontology Biological process (BP) and Molecular Function (MF) terms through GeneCodis 4.[152] The volcano plots, scatterplots, Venn diagrams, and dot plots were generated using the ggplot2 Bioconductor package.

SMILES: O=C1NC(=O)C(Cc2ccc(OCCC3CCN(C(=O)OCc4cc(Cl)cc(Cl)c4)CC3)cc2)S1 (stereo not drawn) [EL244, 3,5-dichlorobenzyl 4-(2-(4-((2,4-dioxothiazolidin-5-yl)methyl)phenoxy)ethyl)piperidine-1-carboxylate]
- Myh6 log2 nFC BLM/EL244 vs BLM (DEG Myh6, nFC: normalised fold change): 2.62
- Myh7 log2 nFC BLM/EL244 vs BLM (DEG Myh7, nFC: normalised fold change): 2.22
- Myl4 log2 nFC BLM/EL244 vs BLM (DEG Myl4, nFC: normalised fold change): 1.94
- Myl7 log2 nFC BLM/EL244 vs BLM (DEG Myl7, nFC: normalised fold change): 1.90
- Mylk3 log2 nFC BLM/EL244 vs BLM (DEG Mylk3, nFC: normalised fold change): 2.03
- Myom2 log2 nFC BLM/EL244 vs BLM (DEG Myom2, nFC: normalised fold change): 1.87
- log2 nFC BLM/EL244 vs BLM (DEG Ncapd2): -1.29
- Ndrg2 log2 nFC BLM/EL244 vs BLM (DEG Ndrg2, nFC: normalised fold change): 0.88
- Nek5 log2 nFC BLM/EL244 vs BLM (DEG Nek5, nFC: normalised fold change): 0.81
- Ngp log2 nFC BLM/EL244 vs BLM (DEG Ngp, nFC: normalised fold change): 2.72
- Nhlrc1 log2 nFC BLM/EL244 vs BLM (DEG Nhlrc1, nFC: normalised fold change): 1.34
- log2 nFC BLM/EL244 vs BLM (DEG Nnat): -1.34
- Nova2 log2 nFC BLM/EL244 vs BLM (DEG Nova2, nFC: normalised fold change): 0.90
- Npr3 log2 nFC BLM/EL244 vs BLM (DEG Npr3, nFC: normalised fold change): 1.53
- Nr1d1 log2 nFC BLM/EL244 vs BLM (DEG Nr1d1, nFC: normalised fold change): 0.84
- Nr4a3 log2 nFC BLM/EL244 vs BLM (DEG Nr4a3, nFC: normalised fold change): 1.63
- log2 nFC BLM/EL244 vs BLM (DEG Nrcam): -1.26
- log2 nFC BLM/EL244 vs BLM (DEG Nrep): -1.26
- Nrgn log2 nFC BLM/EL244 vs BLM (DEG Nrgn, nFC: normalised fold change): 1.04
- Nrn1 log2 nFC BLM/EL244 vs BLM (DEG Nrn1, nFC: normalised fold change): 1.84
- Nrxn2 log2 nFC BLM/EL244 vs BLM (DEG Nrxn2, nFC: normalised fold change): 0.88
- Ogn log2 nFC BLM/EL244 vs BLM (DEG Ogn, nFC: normalised fold change): 0.86
- log2 nFC BLM/EL244 vs BLM (DEG Ooep): -1.51
- Osgin1 log2 nFC BLM/EL244 vs BLM (DEG Osgin1, nFC: normalised fold change): 0.74
- Pcolce2 log2 nFC BLM/EL244 vs BLM (DEG Pcolce2, nFC: normalised fold change): 0.98
- Pcp4l1 log2 nFC BLM/EL244 vs BLM (DEG Pcp4l1, nFC: normalised fold change): 0.75
- log2 nFC BLM/EL244 vs BLM (DEG Pdgfc): -1.47
- log2 nFC BLM/EL244 vs BLM (DEG Pdlim4): -1.24
- Phactr1 log2 nFC BLM/EL244 vs BLM (DEG Phactr1, nFC: normalised fold change): 0.74
- Phf1 log2 nFC BLM/EL244 vs BLM (DEG Phf1, nFC: normalised fold change): 0.75
- Phf24 log2 nFC BLM/EL244 vs BLM (DEG Phf24, nFC: normalised fold change): 1.57
- log2 nFC BLM/EL244 vs BLM (DEG Pla1a): -1.42
- Pla2g1b log2 nFC BLM/EL244 vs BLM (DEG Pla2g1b, nFC: normalised fold change): 0.79
- log2 nFC BLM/EL244 vs BLM (DEG Plk4): -1.31
- Pln log2 nFC BLM/EL244 vs BLM (DEG Pln, nFC: normalised fold change): 2.30
- Pmvk log2 nFC BLM/EL244 vs BLM (DEG Pmvk, nFC: normalised fold change): 1.09
- log2 nFC BLM/EL244 vs BLM (DEG Pole): -1.58
- log2 nFC BLM/EL244 vs BLM (DEG Pole2): -1.50
- Ppbp log2 nFC BLM/EL244 vs BLM (DEG Ppbp, nFC: normalised fold change): 1.09
- Ppl log2 nFC BLM/EL244 vs BLM (DEG Ppl, nFC: normalised fold change): 0.87
- Ppp4r4 log2 nFC BLM/EL244 vs BLM (DEG Ppp4r4, nFC: normalised fold change): 1.26
- Pram1 log2 nFC BLM/EL244 vs BLM (DEG Pram1, nFC: normalised fold change): 1.64
- Prf1 log2 nFC BLM/EL244 vs BLM (DEG Prf1, nFC: normalised fold change): 1.34
- Prmt8 log2 nFC BLM/EL244 vs BLM (DEG Prmt8, nFC: normalised fold change): 1.27
- Prob1 log2 nFC BLM/EL244 vs BLM (DEG Prob1, nFC: normalised fold change): 0.76
- log2 nFC BLM/EL244 vs BLM (DEG Psrc1): -1.26
- Ptgfr log2 nFC BLM/EL244 vs BLM (DEG Ptgfr, nFC: normalised fold change): 0.93
- log2 nFC BLM/EL244 vs BLM (DEG Pth1r): -1.40
- Pwwp3b log2 nFC BLM/EL244 vs BLM (DEG Pwwp3b, nFC: normalised fold change): 1.22
- Rab44 log2 nFC BLM/EL244 vs BLM (DEG Rab44, nFC: normalised fold change): 1.61
- Rapgef5 log2 nFC BLM/EL244 vs BLM (DEG Rapgef5, nFC: normalised fold change): 0.88
- Rassf10 log2 nFC BLM/EL244 vs BLM (DEG Rassf10, nFC: normalised fold change): 1.19
- Rbfox3 log2 nFC BLM/EL244 vs BLM (DEG Rbfox3, nFC: normalised fold change): 1.26
- Rbm24 log2 nFC BLM/EL244 vs BLM (DEG Rbm24, nFC: normalised fold change): 1.20
- Rdh12 log2 nFC BLM/EL244 vs BLM (DEG Rdh12, nFC: normalised fold change): 1.74
- Retnlg log2 nFC BLM/EL244 vs BLM (DEG Retnlg, nFC: normalised fold change): 1.46
- Rgs9 log2 nFC BLM/EL244 vs BLM (DEG Rgs9, nFC: normalised fold change): 1.01
